Experimental findings from US11766467B2, “Methods of treating wounds using cathepsin K inhibitors” (University of Wyoming, priority 2017, dated 2023) are described below.

In assay [1] the test system is full-thickness wounds in diabetic pigs. Put plainly: porcine diabetic (streptozotocin) wound healing model, full-thickness wounds, intradermal injections. In kind it is in vivo. The note with it: for wound closure: both the higher (300 ng/mm^2) and lower (30 ng/mm^2) doses; for wound closure / wound healing (in words): diabetic pigs. As to the method: Odanacatib is a potent and selective inhibitor of cathepsin K and can be administered to promote wound healing in diabetic pigs. Pigs (3-4 months old) were rendered diabetic with intravenous injection of streptozotocin (75 mg/Kg). Four weeks following streptozotocin injections 6-10 full-thickness (one-inch square, ˜[…] thickness) wounds were created in two columns on each side of the dorsal thoracolumbar midline. […] Wounds were photographed prior to treatment and analyzed for wound closure rates.
Data are expressed as mean±SEM (n=8 for vehicle and 6 each for odanacatib treatment). […] Because some values are missing as we had euthanized one pig from each group on day 14 for molecular analysis, the data were analyzed by fitting a mixed model, rather than by repeated measures ANOVA. […]

The subject of assay [2] is cultured human fibroblasts. The assay is described as follows: in vitro monolayer wound-healing assay (cell migration under high glucose). It is filed as cell-based. The conditions noted are these: high glucose 25 mM, 100 ng/ml inhibitor, 5 μg/ml hydroxyurea, 72 h after wounding. As to the method: Referring now to FIGS. 1A-1B, the in vitro monolayer wound-healing assay mimics cell migration during wound healing. An in vitro monolayer wound-healing assay in cultured human fibroblasts was used to test whether pharmacological inhibition of cathepsin K affected cell migration under high-glucose (25 mM) conditions. Mannitol was included to control for osmotic pressure and hydroxyurea to eliminate the potential effects of cell proliferation.
Referring again to FIGS. 1A-1B, inhibition of cathepsin reverses the inhibitory effect of high glucose (HG) on cell migration in a monolayer wound-healing assay. Confluent human fibroblasts were serum starved and subjected to a media containing low (5 mM, LG) or high (25 mM, HG) glucose. The cell monolayer was wounded with a linear scratch using a sterile pipette tip and treated with 100 ng/ml of cathepsin K inhibitor-II in the presence of 5 μg/ml hydroxyurea. At 0 time (upper left panel) and 72 h (lower left panel) after wounding, the cells were photographed using an inverted microscope equipped with a digital camera. Scale bar=600 μm. FIG. 1A. Representative phase-contrast images for each treatment group. FIG. 1B. Bar graph represents the percentage wound closure 72 h after wounding as measured using the NIH Image J software and represented as mean±SEM, n=6, *p<0.01 compared to LG; **p<0.05 compared to LG.

Assay [3] has as its system excisional skin wounds in genetically diabetic db/db mice. The assay is described as follows: excisional skin wound healing in genetically diabetic db/db mice, topical inhibitor. It is filed as in vivo. The note with it: treated along the circumference of the wound. Here is the method:
FIG. 5 illustrates the effect of a topically delivered pharmacological inhibitor of cathepsin K on wound healing in genetically diabetic mice. Excisional skin wounds were created in genetically diabetic db/db mice and the wounds were treated along the circumference of the wounds with cathepsin K inhibitor II or vehicle. Wound healing was evaluated by measuring the wound closure rate and histomorphometric analysis. […] In contrast, wounds in the vehicle treated group remain unhealed during this time period. Heterozygous (db/db^+/−) mice were used as controls in these studies.

Compound `CC(C)(F)C[C@H](N[C@@H](c1ccc(-c2ccc(S(C)(=O)=O)cc2)cc1)C(F)(F)F)C(=O)NC1(C#N)CC1` [odanacatib] returned a wound closure in assay [1] (day 21 post-wounding) of around 93%.

Consider `CC(C)C[C@H](NC(=O)OCc1ccccc1)C(=O)NNC(=O)NNC(=O)[C@H](CC(C)C)NC(=O)[C@H](Cc1ccccc1)NC(=O)OC(C)(C)C` [CatKI-II, 1-(N-Benzyloxycarbonyl-leucyl)-5-(N-Boc-phenylalanyl-leucyl) carbohydrazide], for which the “fibroblast migration / monolayer wound closure” value in assay [2] is on record as “increased migration beyond that observed in the cells treated with a low-glucose media”. In addition, the wound resolution entry in assay [3] (day 12) is given as “significant resolution of wound”; in assay [3] (day 15), “almost complete resolution”. Besides, the “Tukey's multiple comparisons test, Summary” value in assay [1] (Table 1, D 3, 30 vs. 300 ng/mm^2) was “ns”; in assay [1] (Table 1, D 3, Vehicle vs. 300 ng/mm^2), “ns”; in assay [1] (Table 1, D 7, 30 vs. 300 ng/mm^2), “ns”; in assay [1] (Table 1, D 7, Vehicle vs. 300 ng/mm^2), “ns”; in assay [1] (Table 1, D 7, Vehicle vs. 30 μg/mm^2), “ns”; in assay [1] (Table 1, D 14, Vehicle vs. 300 ng/mm^2) it was “ns”. Besides, the “Tukey's multiple comparisons test, Summary” value in assay [1] (Table 1, D 21, Vehicle vs. 300 ng/mm^2) is reported as “ns”; in assay [1] (Table 2, D 3, 30 vs. 300 ng/mm^2), “ns”; in assay [1] (Table 2, D 3, Vehicle vs. 300 ng/mm^2) it was “ns”; in assay [1] (Table 2, D 7, 30 vs. 300 ng/mm^2) it was “ns”; in assay [1] (Table 2, D 7, Vehicle vs. 300 ng/mm^2), “ns”; in assay [1] (Table 2, D 7, Vehicle vs. 30 μg/mm^2) it was “ns”. The “Tukey's multiple comparisons test, Summary” value in assay [1] (Table 2, D 14, Vehicle vs. 300 ng/mm^2) is “ns”; in assay [1] (Table 2, D 21, Vehicle vs. 300 ng/mm^2), “ns”. The compound further registered a wound closure in assay [1] (day 21 post-wounding) of around 93%. Also, the “wound closure / wound healing (in words)” value was “facilitate wound closure” in assay [1] and “promotes wound healing” in assay [1] (listed as Cathepsin K inhibitor II). The “wound area: improvement in wound healing” value in assay [1] (lower dose 30 ng/mm^2/wound, day 21 post-wounding) is “statistically significant improvement in wound healing compared to both vehicle and the higher dose”.
